Measured values taken from article PMC8705538, “Discovery of SARS-CoV-2 Nsp14 and Nsp16 Methyltransferase Inhibitors by High-Throughput Virtual Screening” (Pharmaceuticals, 2021).
Read-outs that look alike come from different tables or passages of the source.

Legend:
SARS-CoV-2 nsp14 = SARS-CoV-2 nsp14 (Severe acute respiratory syndrome coronavirus 2, UniProt P0DTD1); experiment: biochemical; conditions: for Ligand Efficiency (LE) nsp14: estimated from IC50 values
[1] = biological target: T1, human Glycine N-Methyltransferase (GNMT) (Homo sapiens, UniProt Q14749); experiment: HTRF methyltransferase selectivity assay, human GNMT; assay type: biochemical; conditions: for Ligand Efficiency (LE) Human (hMtase): estimated from IC50 values
T1 construct: purchased MyBioSource MBS636160
T1 sequence (Q14749 1-295): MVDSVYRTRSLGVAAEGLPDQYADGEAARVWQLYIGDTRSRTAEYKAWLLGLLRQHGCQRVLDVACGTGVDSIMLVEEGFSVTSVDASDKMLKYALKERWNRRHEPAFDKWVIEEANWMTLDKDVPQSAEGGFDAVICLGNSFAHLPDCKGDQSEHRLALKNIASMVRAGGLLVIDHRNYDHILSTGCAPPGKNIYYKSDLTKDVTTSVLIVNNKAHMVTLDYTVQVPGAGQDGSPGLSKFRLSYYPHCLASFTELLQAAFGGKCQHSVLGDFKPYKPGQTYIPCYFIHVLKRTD

SARS-CoV-2 nsp16/nsp10 = SARS-CoV-2 nsp16/nsp10 (Severe acute respiratory syndrome coronavirus 2, UniProt P0DTD1); experiment: biochemical; conditions: for Ligand Efficiency (LE) nsp16: estimated from IC50 values
[2] = HTRF, SAM 10 µM, GpppG 4 µM, read-out: IC50 nsp14
[3] = HTRF, SAM 10 µM, glycine 5 mM, read-out: IC50 Human (hMtase, human glycine N-methyltransferase)
[4] = HTRF, nsp16/nsp10, SAM 10 µM, m7GpppA-RNA, read-out: IC50 nsp16

Row | SMILES | Percent inhibition at 100 μM, nsp14 (SARS-CoV-2 nsp14) [%] | Percent inhibition at 100 μM, Human [1] [%] | Percent inhibition at 100 μM, nsp16 (SARS-CoV-2 nsp16/nsp10) [%] | other results
1 | CC(C)(C)c1csc(SCC(=O)Nc2cccc3nsnc23)n1 [Compound 009-639-090] | 16 ±1 | 61 ±9 | 43 ±7 | –
2 | O=C(CSc1nc(CC(=O)Nc2cccc3nsnc23)cs1)Nc1ccc(F)cc1 [Compound 009-741-602] | 25 ±2 | 24 ±7 | 45 ±5 | –
3 | CN(CCNc1nc2c(c(=O)[nH]1)Cc1ccccc1OC2)S(C)(=O)=O [Compound 028-736-920] | 8 ±5 | 42 ±2 | -4 ±3 | –
4 | Nc1ncnc2c1ncn2[C@@H]1O[C@H](CSCC[C@H](N)C(=O)O)[C@@H](O)[C@H]1O [S-(5′-Adenosyl)-L-homocysteine (SAH), S-(5′-Adenosyl)-L-homocysteine, reference compound] | – | – | – | IC50 (SARS-CoV-2 nsp14): 0.14 µM; Ligand Efficiency (LE) nsp14 (SARS-CoV-2 nsp14): 0.33 kcal/mol; IC50 [1]: 1.7 µM; Ligand Efficiency (LE) Human (hMtase) [1]: 0.28 kcal/mol; IC50 (SARS-CoV-2 nsp16/nsp10): 0.28 µM; Ligand Efficiency (LE) nsp16 (SARS-CoV-2 nsp16/nsp10): 0.32 kcal/mol
5 | Nc1ncnc2c1ncn2[C@@H]1O[C@H](C(=O)NC2CC2)[C@@H](O)[C@H]1O [ZINC000004475116] | 32 ±6 | 56 ±1 | 54 ±10 | –
6 | NC1=NC(c2ccccc2)n2c(nc(=O)c3ccccc32)N1 (stereo not shown) [ZINC000008994271] | 19 ±10 | -3 ±6 | 39 ±3 | –
7 | Cc1ncsc1CCC(=O)N1CCCC(C(=O)c2ccc3c4c(cccc24)CC3)C1 (stereo not shown) [ZINC000012755219] | 9 ±5 | 61 ±4 | 40 ±8 | –
8 | CC(=O)N1N=C(c2ccc3c(c2)OCO3)CC1c1cn(-c2ccccc2)nc1C (stereo not shown) [ZINC000012821397] | 27 ±5 | -5 ±2 | 15 ±5 | –
9 | Nc1ncnc2c1ncn2[C@@H]1O[C@H](C(=O)N2CCN(CC(=O)Nc3cccc4c3CNC4=O)CC2)[C@@H](O)[C@H]1O [ZINC000017654909] | 62 ±2 | 98 ±2 | 65 ±7 | IC50 (SARS-CoV-2 nsp14; [2]): 75 ± 4 µM; Ligand Efficiency (LE) nsp14 (SARS-CoV-2 nsp14): 0.14 kcal/mol; IC50 [1, 3]: 22.8 µM; Ligand Efficiency (LE) Human (hMtase) [1]: 0.16 kcal/mol; IC50 (SARS-CoV-2 nsp16/nsp10; [4]): 75 ± 4 µM; Ligand Efficiency (LE) nsp16 (SARS-CoV-2 nsp16/nsp10): 0.14 kcal/mol
10 | Cc1nc2ccc(Cl)cc2cc1C(=O)Nc1ccc(C(N)=O)cc1 [ZINC000019718669] | 49 ±16 | 52 ±4 | 66 ±9 | –
11 | CC(=O)N1N=C(c2ccc3c(c2)OCO3)OC1c1cc(-c2ccccc2)nc2ccccc12 (stereo not shown) [ZINC000021941344] | 12 ±4 | 45 ±7 | 36 ±10 | –
12 | COc1cc(NC(=O)C2CCN(Cc3nc(-c4cccc(C)c4)no3)CC2)c(OC)cc1Cl [ZINC000030974583] | 19 ±1 | 48 ±8 | 45 ±11 | –
13 | NC(=O)CC[C@H](N)C(=O)NS(=O)(=O)OC[C@H]1O[C@@H](n2cnc3c(N)ncnc32)[C@H](O)[C@@H]1O [ZINC000036477981] | 20 ±3 | 89 ±8 | 50 ±11 | –
14 | Nc1ncnc2c1ncn2[C@@H]1O[C@H](COC(=O)c2ccc(S(=O)(=O)F)cc2)[C@@H](O)[C@H]1O [ZINC000048222133] | 58 ±2 | 87 ±1 | 42 ±6 | IC50 (SARS-CoV-2 nsp14; [2]): 53 ± 3 µM; Ligand Efficiency (LE) nsp14 (SARS-CoV-2 nsp14): 0.19 kcal/mol; IC50 [1, 3]: 25.3 µM; Ligand Efficiency (LE) Human (hMtase) [1]: 0.20 kcal/mol; IC50 (SARS-CoV-2 nsp16/nsp10; [4]): 105 ± 6 µM; Ligand Efficiency (LE) nsp16 (SARS-CoV-2 nsp16/nsp10): 0.17 kcal/mol
15 | Cc1ccccc1NC(=O)c1nnn2c1NC(C(=O)O)=CC2c1ccc(C(=O)O)cc1 (stereo not shown) [ZINC000072333096] | 25 ±10 | 17 ±4 | 33 ±12 | –
16 | Cc1cc(=O)[nH]c(NCCNC(=O)c2cc(-c3cccn3C)n[nH]2)n1 [ZINC000091693861] | 9 ±6 | 21 ±6 | 24 ±4 | –
17 | COc1ccccc1CN1CC(C(=O)NCc2n[nH]c(=O)[nH]2)CCC1=O (stereo not shown) [ZINC000092001674] | 0 ±7 | 44 ±8 | 22 ±12 | –

Row | SMILES | Percent inhibition at 100 μM, nsp14 (SARS-CoV-2 nsp14) [%] | Percent inhibition at 100 μM, Human [1] [%] | Percent inhibition at 100 μM, nsp16 (SARS-CoV-2 nsp16/nsp10) [%] | other results
18 | COc1c(C)c2c(c(O)c1CC=C(C)CCC(=O)Nc1nnc[nH]1)C(=O)OC2 [ZINC000096115284] | 5 ±4 | – | -68 ±6 | –
19 | O=C(Nc1ccccc1-c1ccccc1)C1CCCN(c2ccc(-n3cncn3)nn2)C1 (stereo not shown) [ZINC000096124096] | 9 ±7 | – | 10 ±1 | –
20 | CC(C)N(CC1OC(n2cnc3c(N)ncnc32)C(O)C1O)C1CC(CCc2nc3cc(C(C)(C)C)ccc3[nH]2)C1 (stereo not shown) [ZINC000100074350] | 30 ±4 | – | 68 ±7 | –
21 | Cc1cc(=O)n2c(n1)NC(N1CCOCC1)=NC2c1ccccc1 (stereo not shown) [ZINC000104279901] | -14 ±2 | – | -33 ±4 | –
22 | O=C(Cc1ccc2c(c1)CCO2)Nc1ccc2nc[nH]c(=O)c2c1 [ZINC000170622294] | -2 ±2 | – | -6 ±3 | –
23 | O=C(CCc1ccc(O)cc1)NC(c1ccc2c(c1)CCO2)C1CC(O)C1 (stereo not shown) [ZINC000220681335] | 0 ±2 | – | 10 ±5 | –
24 | O=C(CCc1ccncc1)NC(c1ccccc1)C1CC(O)C1 (stereo not shown) [ZINC000252528037] | 13 ±2 | – | 36 ±3 | –
25 | CCc1n[nH]c2c1CN(C(=O)c1cccc(-c3cc(O)nc(N)n3)c1)CC2 [ZINC000426470786] | 1 ±6 | – | 8 ±5 | –
26 | CN1CC(=O)N(c2cccc(NC(=O)NC[C@H](O)CO)c2)C1=O [ZINC000426716892] | -1 ±2 | – | 30 ±2 | –
27 | Cc1cc(-c2ccc(C(=O)NCC(N)=O)cc2)nc(N2CCOCC2)n1 [ZINC000534574506] | 3 ±3 | – | 17 ±8 | –
28 | O=C(CN1C(=O)c2ccccc2N2C(=O)c3ccccc3C12)N1CCc2c([nH]c3ccccc23)C1 (stereo not shown) [ZINC000604419204] | 5 ±11 | – | -3 ±5 | –
29 | Cc1[nH]c(-c2ccccc2)nc1C(=O)NCc1ccc2[nH]c(=O)[nH]c2c1 [ZINC000680227150] | 19 ±7 | – | 23 ±5 | –
30 | O=C(c1ccc2c3c([nH]c2c1)CCCC3)N1CCC[C@H]1c1nc(-c2ccncc2)no1 [ZINC000952966781] | 11 ±10 | – | 24 ±5 | –
31 | O=C(CCc1n[nH]c2c1CCCC2)NCc1cc(O)ncn1 [ZINC000952975967] | 2 ±7 | – | -24 ±4 | –
32 | O=C(CCc1nc2cc(Cl)ccc2[nH]1)N1CC[C@H](n2c(=O)[nH]c3cccnc32)C1 [ZINC1548405210] | 6 ±2 | – | 15 ±2 | –
33 | CC(=O)c1cnc(NC(C)c2nnc(CC(=O)O)[nH]2)nc1C (stereo not shown) [ZINC1772709012] | 16 ±13 | – | 32 ±8 | –
34 | O=C(C1CCc2sc(-c3ccncc3)nc2C1)N1CCc2c(nc[nH]c2=O)C1 (stereo not shown) [ZINC1772809556] | 15 ±9 | – | 5 ±8 | –
